# Results as given in patent US5273979A, “C-31 desmethyl FR-900520 cyclic hemiketal immunosuppressant agent” (Merck & Co., Inc., priority 1991, dated 1993).
# pIC50: −log10 of the molar value. “Also recorded” adds a separate entry of the source. Read-outs that look alike come from different tables or passages of the source.
# Experiments:
# [1] = test system: Splenic T-cells stimulated with ionomycin + PMA; experiment: T-cell proliferation assay (ionomycin plus PMA induced T-cell stimulation assay); type: cell-based, mouse
# Procedure: Cells were pelleted by centrifugation at 1500 rpm for 8 minutes. Contaminating red cells were removed by treating the pellet with ammonium chloride lysing buffer (GIBCO) for 2 minutes at 4° C. Cold medium was added and cells were again centrifuged at 1500 rpm for 8 minutes. T lymphocytes were then isolated by separation of the cell suspension on nylon wool columns as follows: Nylon wool columns were prepared by packing approximately 4 grams of washed and dried nylon wool into 20 ml plastic syringes. The columns were sterilized by autoclaving at 250° F. for 30 minutes. Nylon wool columns were wetted with warm (37° C.) culture medium and rinsed with the same medium. Washed spleen cells resuspended in warm medium were slowly applied to the nylon wool. The columns were then incubated in an upright position at 37° C. for 1 hour. Non-adherent T lymphocytes were eluted from the columns with warm culture medium and the cell suspensions were spun as above.
# The cell suspension was immediately distributed into 96 well flat-bottom microculture plates (Costar) at 200 μl/well. […] The proliferation of T lymphocytes was assessed by measurement of tritiated thymidine incorporation. After 44 hours of culturing, the cells were pulse-labelled with 2 μCi/well of tritiated thymidine (NEN, Cambridge, Mass.). After another 4 hours of incubation, cultures were harvested on glass fiber filters using a multiple sample harvester. Radioactivity of filter discs corresponding to individual wells was measured by standard liquid scintillation counting methods (Betacounter). Mean counts per minute of replicate wells were calculated and the results expressed as percent inhibition of tritiated thymidine uptake (proliferation) as follows: [formula]
# [2] = molecular target: T1, 31-O-desmethylimmunomycin O-methyltransferase (DIMT) (Streptomyces hygroscopicus, UniProt Q9KID5); experiment: S-adenosyl-L-methionine: 31-O-desmethylimmunomycin O-methyltransferase (DIMT) assay; type: biochemical, Streptomyces hygroscopicus var. ascomyceticus
# T1 construct: cell-free extract, DEAE-Sepharose pool, or second MonoQ preparation (kinetics)
# T1 sequence (Q9KID5 1-260): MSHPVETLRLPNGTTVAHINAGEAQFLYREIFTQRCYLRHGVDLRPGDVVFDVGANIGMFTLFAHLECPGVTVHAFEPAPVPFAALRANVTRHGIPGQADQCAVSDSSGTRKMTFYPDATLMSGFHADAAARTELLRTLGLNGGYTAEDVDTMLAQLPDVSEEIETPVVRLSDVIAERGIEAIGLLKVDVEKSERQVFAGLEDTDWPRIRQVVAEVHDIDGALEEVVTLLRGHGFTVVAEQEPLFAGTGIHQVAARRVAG
# Procedure: The assay was carried out in 1 ml. mixture containing 0.025 mM 31-desmethylimmunomycin, 1 mM MgSO4 and different quantities of the enzyme source in 50 mM phosphate buffer, pH 7.5. Reaction was initiated by the addition of 1 nmole of ^14 C-SAM (S-adenosyl-L-[methyl-^14 C] methionine with the specific activity of 46 mCi/mmole. Incubation of the complete mixture was carried out at 34° C. for 20 minutes and the reaction was terminated by the addition of ethyl acetate. Product of the reaction was extracted with 2 ml of ethyl acetate and 1 ml of the extract was used for TLC and HPLC analysis. For the analysis of the radioactive reaction product (immunomycin), the ethyl acetate extract was spiked with the standard immunomycin and subjected to the TLC with a plate having plastic support. The plastic sheet was developed in chloroform:methanol (9:1) and area showing standard immunomycin under UV-light was cut and the radioactivity in the cut-strip was measured. The amount of the product formed was calculated from the measured radioactivity. For the HPLC analysis of the product of the enzyme reaction, several enzymatic reaction mixtures were pooled and the extract was subjected to the TLC analysis as above. The area on the silica gel plate showing the band having an Rf value identical with the standard immunomycin was scraped and eluted with ethyl acetate. The ethyl acetate extract was washed with water, dried under nitrogen and the residue was subjected to the HPLC analysis on Partisil 5-ODS-3 column with acetonitrile:water:phosphoric acid (65:35:0.1) as the eluting solvent. One milliliter fractions were collected and a portion of each fraction was examined for the radioactivity.
# Examination of the optimal temperature, pH and metal requirement of the DIMT activity was carried out on the enzyme preparation obtained from DEAE-Sepharose column. For kinetic analysis, a preparation which had been purified through a second MonoQ column chromatography was utilized.
Inhibition of DIMT activity (result in words) [2],Compound,Inhibition of T-cell activation (result in words) [1],Inhibition of DIMT activity (result in words) ([2]; crude extract),other results
,CC[C@@H]1C=C2COC1(O)C[C@H](O)[C@@H](C)[C@@H](/C(C)=C/[C@@H]1CC[C@@H](O)[C@H](OC)C1)OC(=O)[C@@H]1CCCCN1C(=O)C(=O)[C@]1(O)O[C@H]([C@@H](OC)C[C@@H](C)C2)[C@@H](OC)C[C@H]1C [Compound II],positive inhibition of T-cell activation; also recorded: positive results,,
,CC[C@@H]1C=C2COC1(O)C[C@H](O)[C@@H](C)[C@@H](/C(C)=C/[C@@H]1CC[C@@H](O)[C@H](O)C1)OC(=O)[C@@H]1CCCCN1C(=O)C(=O)[C@]1(O)O[C@H]([C@@H](OC)C[C@@H](C)C2)[C@@H](OC)C[C@H]1C [Compound I],positive inhibition of T-cell activation,,"Activity versus the FK-506 immunosuppressive activity (result in words) [1]: antagonist activity; Reversal of inhibition of T-cell proliferation by IL2 ([1]; 50 units/ml recombinant IL2 added at the initiation of culture): reversed; pIC50 ([1]; Mus musculus, T-cell, general range, read-out: IC50, generally in the range): 7.74 to 8.00"
major inhibition,"Nc1ncnc2c1ncn2[C@@H]1O[C@H](CSCC[C@H](N)C(=O)O)[C@@H](O)[C@H]1O [S-adenosyl-homocysteine (SAH), S-adenosyl-homocysteine]",,,
,N.N.O=S(=O)(O)O [ammonium sulfate],,inhibited,
major inhibition,Nc1ncnc2c1ncn2[C@@H]1O[C@H](C[C@@H](N)CC[C@H](N)C(=O)O)[C@@H](O)[C@H]1O [sinefungin],,,

Compound,Inhibition of DIMT activity (result in words) [2],Inhibition of T-cell activation (result in words) [1],Inhibition of DIMT activity (result in words) ([2]; crude extract),other results
O=C(O)CN(CCN(CC(=O)O)CC(=O)O)CC(=O)O [EDTA],major inhibition,,completely inhibited,
